Measured values as given in patent US20080269193A1, “Tetrahydroindole and Tetrahydroindazole Derivatives” (priority 2007, published 2008).

How the values were obtained:
PC-3 cell line = test: PC-3 cell proliferation assay; format: cell-based; settings: for IC50: Homo sapiens, PC-3 cells, read-out: inhibitory activity against PC-3 cell proliferation (IC50 range)
Protocol: (§1) A panel of cancer cell lines was obtained from the DCTP Tumor Repository, National Cancer Institute (Frederick, Md.) or ATCC (Rockville, Md.). Cell cultures were maintained in Hyclone RPMI 1640 medium (Logan, Utah) supplemented with 10% fetal bovine serum and 20 mM HEPES buffer, final pH 7.2, at 37° C. with a 5% CO2 atmosphere. Cultures were maintained at sub-confluent densities. Human umbilical vein endothelial cells (HUVEC) were purchased from Clonetics, a division of Cambrex (Walkersville, Md.). Cultures were established from cryopreserved stocks using Clonetics EGM-2 medium supplemented with 20 mM HEPES, final pH 7.2, at 37° C. with a 5% CO2 atmosphere.
(§2) For proliferation assays, cells were seeded with the appropriate medium into 96 well plates at 1,000-2,500 cells per well, depending on the cell line, and were incubated overnight. The following day, test compound, DMSO solution (negative control), or Actinomycin D (positive control) was added to the appropriate wells as 10× concentrated stocks prepared in phosphate buffered saline. The cell plates were then incubated for an additional 2-5 days, depending on the cell line, to allow proliferation to occur. To measure cell density, 50 μL of WST-1 solution (Roche Applied Science, Ind.) diluted 1:5 in phosphate buffered saline was added to each well, and the cells incubated for an additional 1-5 hrs., again depending on the cell line. Optical density was determined for each well at […] using a Tecan GeniosPro plate reader (RTP, NC). The percentage of cell growth was determined by comparing the cell growth in the presence of test compounds to the cells treated with DMSO vehicle (control, 100% growth) and cells treated with Actinomycin D (10 μM, 0% growth).
Immediately after the WST-1 determination, the medium was removed from the PC-3, NCI-H460 and HUVEC cell lines, and the plates stored at −80° C. Using these assay plates, relative amounts of DNA in each well were determined using the Cyquant DNA assay kit from […] (Eugene, Oreg.) following the manufacturer's directions. Results for each compound treatment were compared to DMSO vehicle control (100%) and 10 μM Actinomycin D treated cells (0%).

[1] = tested on: HSP-90 (heat shock protein 90); test: Determination of affinity for HSP-90 (purine affinity column elution); format: binding; set-up: key: +++: very high; ++: high; +: moderate; settings: elution from purine affinity column
Protocol: Affinity of test compounds for HSP-90 was determined as follows: Protein mixtures obtained from a variety of organ tissues (for example: spleen, liver and lung) were reversibly bound to a purine affinity column to capture purine-binding proteins, especially HSP-90. The purine affinity column was washed several times, and then eluted with 20 μM, 100 μM, and 500 μM of test compound. Compounds of Formula I elute HP-90 in a dose-dependent manner vs. a control elution using dimethylsulfoxide. The elution profile of Formula I compounds was determined by 1-dimensional SDS polyacrylamide gel electrophoresis. Gels were stained with a fluorescent stain such as sypro ruby (a highly sensitive fluorescent protein stain that can readily detect less than 1 fmol of total protein, i.e., less than 0.04 ng for a 40 kDa protein) or silver nitrate. The gels were imaged using a standard flat bed gel imager and the amount of protein estimated by densitometry. The percent of HSP-90 protein eluted from the column at each concentration was determined and IC50 values were calculated from these estimates.

NCl/ADR-RES cell line = test: Potency against adriamycin-resistant breast cancer cell line; format: cell-based, human; settings: vs non-fluorinated parent analog
Protocol: as §1
as §2, with “The cell plates were then incubated for an additional 2-5 days, depending on the cell line, to allow proliferation to occur. To measure cell density, 50 μL of WST-1 solution (Roche Applied Science, Ind.) diluted 1:5 in phosphate buffered saline was added to each well, and the cells incubated for an additional 1-5 hrs., again depending on the cell line.” left out

[2] = tested on: MES-SA/Dx5 (MDR+) cell line; test: Potency against multi-drug resistant cell line; format: cell-based; settings: vs non-fluorinated parent analog
Protocol: as §1
as §2, with “The cell plates were then incubated for an additional 2-5 days, depending on the cell line, to allow proliferation to occur. To measure cell density, 50 μL of WST-1 solution (Roche Applied Science, Ind.) diluted 1:5 in phosphate buffered saline was added to each well, and the cells incubated for an additional 1-5 hrs., again depending on the cell line.” left out

[3] = Oral bioavailability in rat; settings: in vivo, 10 mg/kg over 24 hours, read-out: oral bioavailability (F)
Aqueous solubility = format: physicochemical; settings: water; mono hydrochloride salt

Row | IC50 (PC-3 cell line) [nM] | relative binding affinity to HSP-90 [1] | SMILES | further results
1 |  |  | CC1(C)CC(=O)c2c(C(F)(F)F)nn(-c3ccc(C(N)=O)c(NC4CCC4)c3)c2C1 [Example 148, 2-(cyclobutylamino)-4-(6,6-dimethyl-4-oxo-3-(trifluoromethyl)-4,5,6,7-tetrahydro-1H-indazol-1-yl)benzamide] | times more active in PC-3 cell line (PC-3 cell line; vs open chain butyl or alkyl analogs containing no oxygen): 20-100 times
2 | 500 to 5000 | +++ | C[C@H](O)CNc1cc(-n2nc(C(F)(F)F)c3c2CC(C)(C)CC3=O)ccc1C(N)=O [Example 165, (S)-4-(6,6-dimethyl-4-oxo-3-(trifluoromethyl)-4,5,6,7-tetrahydro-1H-indazol-1-yl)-2-(2-hydroxypropylamino)benzamide] | 
3 | < 500 | +++ | CC(C)(C)CN[C@H]1CC[C@H](Nc2cc(-n3nc(C(F)(F)F)c4c3CC(C)(C)CC4=O)ccc2C(N)=O)CC1 [Example 140, 4-(6,6-dimethyl-4-oxo-3-(trifluoromethyl)-4,5,6,7-tetrahydro-1H-indazol-1-yl)-2-(trans-4-(neopentylamino)cyclohexylamino)benzamide] | 
4 |  |  | CC1(C)CC(=O)c2c(C(F)(F)F)nn(-c3ccc(C(N)=O)c(N[C@H]4CCCC[C@@H]4O)c3)c2C1 [Example 172, 4-(6,6-dimethyl-4-oxo-3-(trifluoromethyl)-4,5,6,7-tetrahydro-1H-indazol-1-yl)-2-((1S,2S)-2-hydroxycyclohexylamino)benzamide] | times more potent in PC-3 cell line (PC-3 cell line; vs cyclohexyl analogs not substituted with an oxygen atom): 20-50 times
5 | < 500 | +++ | CCc1nn(-c2ccc(C(N)=O)c(N[C@H]3CCC[C@@H]3O)c2)c2c1C(=O)CC(C)(C)C2 [Example 180, 4-(3-ethyl-6,6-dimethyl-4-oxo-4,5,6,7-tetrahydro-1H-indazol-1-yl)-2-((1S,2S)-2-hydroxycyclopentylamino)benzamide] | 
6 |  |  | CC1(C)CC(=O)c2c(CC3CC3)nn(-c3cc(F)c(C(N)=O)c(NC4CCOCC4)c3)c2C1 [Example 48, 4-(3-(cyclopropylmethyl)-6,6-dimethyl-4-oxo-4,5,6,7-tetrahydro-1H-indazol-1-yl)-2-fluoro-6-(tetrahydro-2H-pyran-4-ylamino)benzamide] | times more potent against NCl/ADR-RES cell line (NCl/ADR-RES cell line): 3-10 times; times more potent against MES-SA/Dx5 (MDR+) cell line [2]: 4-6 times
7 |  |  | Cc1nn(-c2cc(F)c(C(N)=O)c(NC3CCOCC3)c2)c2c1C(=O)CC(C)(C)C2 [Example 50, 2-fluoro-6-(tetrahydro-2H-pyran-4-ylamino)-4-(3,6,6-trimethyl-4-oxo-4,5,6,7-tetrahydro-1H-indazol-1-yl)benzamide] | bioavailability [3]: > 40%
8 |  |  | C#CCN1CCC[C@H](Nc2cc(-n3nc(C(F)(F)F)c4c3CC(C)(C)CC4=O)ccc2C(N)=O)C1 [Example 121, (S)-4-(6,6-dimethyl-4-oxo-3-(trifluoromethyl)-4,5,6,7-tetrahydro-1H-indazol-1-yl)-2-(1-(prop-2-ynyl)piperidin-3-ylamino)benzamide] | solubility (Aqueous solubility): > 10000 µg/mL
9 | < 500 | +++ | CC1(C)CC(=O)c2c(C(F)(F)F)nn(-c3ccc(C(N)=O)c(N[C@@H]4CCCC[C@H]4N)c3)c2C1 [Example 119, 2-((1R,2R)-2-aminocyclohexylamino)-4-(6,6-dimethyl-4-oxo-3-(trifluoromethyl)-4,5,6,7-tetrahydro-1H-indazol-1-yl)benzamide] | 
10 | 500 to 5000 |  | CC1(C)CC(=O)c2c(C(F)(F)F)nn(-c3ccc(C(N)=O)c(NCCSc4ncccn4)c3)c2C1 [Example 124, 4-(6,6-dimethyl-4-oxo-3-(trifluoromethyl)-4,5,6,7-tetrahydro-1H-indazol-1-yl)-2-(2-(pyrimidin-2-ylthio)ethylamino)benzamide] | 
11 |  |  | C#CCN1CCC(Nc2cc(-n3nc(C(F)F)c4c3CC(C)(C)CC4=O)ccc2C(N)=O)CC1 [Example 106, 4-(3-(difluoromethyl)-6,6-dimethyl-4-oxo-4,5,6,7-tetrahydro-1H-indazol-1-yl)-2-(1-(prop-2-ynyl)piperidin-4-ylamino)benzamide] | inhibition of PC-3 cell line growth, times more (PC-3 cell line; vs compounds lacking a basic nitrogen or amino group at R6): 5-10 times
12 | 5000 to 50000 | ++ | CCc1nn(-c2ccc(C(N)=O)c3[nH]c(C)nc23)c2c1C(=O)CC(C)(C)C2 [Example 186, 4-(3-ethyl-6,6-dimethyl-4-oxo-4,5,6,7-tetrahydro-1H-indazol-1-yl)-2-methyl-1H-benzo[d]imidazole-7-carboxamide] | 
13 | < 500 | +++ | CCc1nn(-c2ccc(C(N)=O)c(N[C@H]3CC[C@H](O)CC3)c2F)c2c1C(=O)CC(C)(C)C2 [Example 51, 4-(3-ethyl-6,6-dimethyl-4-oxo-4,5,6,7-tetrahydro-1H-indazol-1-yl)-3-fluoro-2-(trans-4-hydroxycyclohexylamino)benzamide] | 
14 | < 500 | +++ | CC1(C)CC(=O)c2c(CC3CC3)nn(-c3ccc(C(N)=O)c(NC4CCOCC4)c3)c2C1 [Example 157, 4-(3-(cyclopropylmethyl)-6,6-dimethyl-4-oxo-4,5,6,7-tetrahydro-1H-indazol-1-yl)-2-(tetrahydro-2H-pyran-4-ylamino)benzamide] | 
15 |  |  | CC1(C)CC(=O)c2c(C(F)(F)F)nn(-c3ccc(C(N)=O)c(NCCO)c3)c2C1 [Example 150, 4-(6,6-dimethyl-4-oxo-3-(trifluoromethyl)-4,5,6,7-tetrahydro-1H-indazol-1-yl)-2-(2-hydroxyethylamino)benzamide] | times more potent in PC-3 cell line (PC-3 cell line; vs alkyl analogs without oxygen): 10-30 times
16 |  |  | Cc1nn(-c2ccc(C(N)=O)c(N[C@H]3CCOC3)c2)c2c1C(=O)CC(C)(C)C2 [Example 181, (S)-2-(tetrahydrofuran-3-ylamino)-4-(3,6,6-trimethyl-4-oxo-4,5,6,7-tetrahydro-1H-indazol-1-yl)benzamide] | times more active in PC-3 cell line (PC-3 cell line; vs non-oxygen containing cyclopentyl analogs): 20-50 times
17 | < 500 | +++ | CCc1nn(-c2cc(F)c(C(N)=O)c(NCC(OC)OC)c2)c2c1C(=O)CC(C)(C)C2 [Example 97, 2-(2,2-dimethoxyethylamino)-4-(3-ethyl-6,6-dimethyl-4-oxo-4,5,6,7-tetrahydro-1H-indazol-1-yl)-6-fluorobenzamide] | 
18 | < 500 | +++ | CCc1nn(-c2cc(F)c(C(N)=O)c(NC3CC=CC3)c2)c2c1C(=O)CC(C)(C)C2 [Example 89, 2-(cyclopent-3-enylamino)-4-(3-ethyl-6,6-dimethyl-4-oxo-4,5,6,7-tetrahydro-1H-indazol-1-yl)-6-fluorobenzamide] | 
